According to ChEMBL document CHEMBL1134982, “Natural PTP1B inhibitors from Broussonetia papyrifera” (Bioorg Med Chem Lett, 2002):

These molecules were tested against T1, Tyrosine-protein phosphatase non-receptor type 1 (Homo sapiens, UniProt P18031) (assay: The inhibitory activity tested against human Protein-tyrosine phosphatase 1B enzyme).
T1 sequence (P18031 whole entry): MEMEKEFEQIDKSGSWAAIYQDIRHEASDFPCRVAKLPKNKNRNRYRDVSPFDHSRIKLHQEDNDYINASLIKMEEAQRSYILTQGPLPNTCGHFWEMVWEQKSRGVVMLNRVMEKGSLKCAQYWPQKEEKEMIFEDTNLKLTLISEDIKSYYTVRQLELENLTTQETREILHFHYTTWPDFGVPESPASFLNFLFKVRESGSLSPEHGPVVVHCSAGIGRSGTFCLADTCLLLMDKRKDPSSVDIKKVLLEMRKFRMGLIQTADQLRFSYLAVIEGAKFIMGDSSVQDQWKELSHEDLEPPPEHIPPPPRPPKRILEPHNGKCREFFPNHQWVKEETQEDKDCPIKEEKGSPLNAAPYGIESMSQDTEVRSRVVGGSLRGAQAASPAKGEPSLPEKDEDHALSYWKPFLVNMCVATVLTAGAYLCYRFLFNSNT

IC50 | SMILES
41.5 µM | CC(C)=CCc1cc(C2CCc3ccc(O)cc3O2)cc(O)c1O (centres undefined)
21.5 µM | CC(C)=CCc1cc(-c2oc3cc(O)cc(O)c3c(=O)c2O)cc(O)c1O
36.8 µM | CC(C)=CCc1cc(C(=O)/C=C/c2ccc(O)c(O)c2)c(O)cc1O [BROUSSOCHALCONE A]
4.3 µM | C=CC(C)(C)c1c(O)cc(O)c2c(=O)c(O)c(-c3cc(O)c(O)c(CC=C(C)C)c3)oc12
